Source: PMC9231138, “Dihydrotanshinone I Enhances Cell Adhesion and Inhibits Cell Migration in Osteosarcoma U−2 OS Cells through CD44 and Chemokine Signaling” (Molecules, 2022)

Experiments:
Format in all cases: cell-based, human
U−2 OS cells = test: Cell adhesion: trypsin digestion time, U−2 OS cells; details: DS−1 7.5 μM for 24 h, trypsin at 25 °C; control within 120 s
Method: We wondered if there were other pathways affecting cell migration besides EMT signals.
Figure 7 DS−1 enhanced U−2 OS cells’ adhesion. (A) The morphological changes of U−2 OS cells treated with/without DS−1. Cells were treated with 0 and 7.5 μM DS−1 for 24 h, washed with PBS, and digested with trypsin at 25 °C under a microscope, and photos were taken every 30 s. The percentages of digested cells are recorded in (B). (C) Heatmap of genes related to the adherens’ junction in the control group and DS−1 group. (D) U−2 OS cells were treated with 0 and 7.5 μM DS−1 for 24 h, and the expression of CD44 was observed by immunofluorescence. (E,F) CD44 and GAPDH were analyzed by Western blot and calculated by Image J. (G) The relative expression of 4 kinds of MT-MMPs was analyzed by the transcriptome, as shown in the heatmap. (H) After being treated with DS−1, the relative expression of MT-MMP-1 was verified by RT-PCR. Values are the average of three independent experiments, * p < 0.05, ** p < 0.01, *** p < 0.005.

FOXO1 = FOXO1 by immunofluorescence and immunoblotting; details: DS−1 3.125, 6.25, and 12.5 μM
Method: Figure 3 DS−1 inhibited the expression of transcription factor FOXO1 in U−2 OS cells. (A) U−2 OS cells were treated with DS−1 at 0, 3.125, 6.25, and 12.5 μM, and the changes in FOXO1 were analyzed by immunofluorescent staining, followed by confocal microscopy imaging. (B) U−2OS cells were treated with DS−1 at 0, 3.125, 6.25, and 12.5 μM, and FOXO1 and pFOXO1 were analyzed by Western blot; the changes were presented in histograms (C,D). (E) U−2 OS cells were treated with DS−1 at 6.25 μM for 0, 12, 24, and 48 h, then FOXO1 was analyzed by Western blot, and the changes are presented in the histogram (F). (G) The pFOXO1/FOXO1 value is shown in the histogram. […]
Sample preparation: U−2 OS cells seeded in 10 cm Petri dishes were collected and washed with ice-cold PBS and RIPA lysis buffer with PMAF; phosphatase inhibitor was added, and the tubes were placed on ice for 30 min and vortexed for 30 s at intervals of 10 min. […] The protein samples were placed on ice, and the concentration of each protein sample was measured by the BCA kit (Thermo). […]
Antibody staining: We blocked the membrane for 1 h at room temperature using 5% blocking solution, then incubated the membrane with appropriate dilutions of the primary antibody in the blocking solution overnight at 4 °C. […] Images were acquired using darkroom development techniques for chemiluminescence and analyzed by Image J.

p21 = test: RT-PCR p21 mRNA in U−2 OS cells; details: 24 h
Method: Total RNA within cells was extracted by the RNAeasy™ Animal Long RNA Isolation Kit with Spin Column (Shanghai, Beyotime); the concentrations and OD260/OD280 and OD230/OD260 values were measured by NanoDrop. Five micrograms of RNA was used for reverse transcription; each sample was diluted to 16 μL, and 4 μL of synthesized premix solution (5×) was added, then the mixtures were placed in a 42 °C water bath for 10 min, then an 80 °C water bath for 10 min to deactivate reverse transcriptase. After reverse transcription, each sample was diluted to 140 μL. PCR amplification was carried out by the ABI700 real-time PCR system, and the amplification reaction was detected with a SYBR probe. After PCR, actin and GAPDH were used as internal references, and the relative standard curve method (2^−ΔΔcT) determined the relative expression of mRNA.

## Cc1cccc2c3c(ccc12)C1=C(C(=O)C3=O)[C@@H](C)CO1 [DS−1, 15,16-Dihydrotanshinone I]
U−2 OS cells
  time of trypsin digestion: ≤ 210 s
FOXO1
  expression of FOXO1: reduced
p21; DS−1 2.5 µM
  p21 mRNA, fold of the control group: 10.1 ± 3.9 fold
p21; DS−1 5.0 µM
  p21 mRNA, fold of the control group: 56.8 ± 8.2 fold
p21; DS−1 7.5 µM
  p21 mRNA, fold of the control group: 90.2 ± 6.7 fold
